{"source": "patent US11807627B2", "about": "“Morphic forms of complement factor D inhibitors” (priority 2018, dated 2023)", "key": {"[1]": {"assay": "Solution stress testing (acid, base, oxidative degradation)", "format": "physicochemical"}, "[2]": {"assay": "pH experiments and SIF/SGF/FaSSIF/FeSSIF solubility (Examples 3 and 4)", "format": "physicochemical"}, "[3]": {"assay": "ICH stability study of amorphous Compound 2", "format": "physicochemical", "description": "Compound 2 stored in double LDPE bag with silica gel in aluminum receptacle with lid had the following stability characteristics described in Table 9."}, "[4]": {"assay": "Caco2 permeability and efflux ratio", "format": "in vitro ADME", "conditions": "human, Caco-2; Caco2; read-out: Efflux ratio (B-A/A-B)"}, "Caco2": {"system": "Caco2", "assay": "Caco2 permeability and efflux ratio", "format": "in vitro ADME", "conditions": "A-B"}, "[5]": {"assay": "Dose number and BCS classification", "format": "physicochemical"}, "[6]": {"assay": "Solid state stress testing (temperature, humidity, storage, photostability)", "format": "physicochemical"}, "Thermal stability by TGA": {"assay": "Thermal stability by TGA", "format": "physicochemical", "conditions": "to 150° C.", "procedure": "TG analyses were performed using a TA Instruments Q5000 IR thermogravimetric analyzer. Temperature calibration was performed using nickel and Alumel™. Each sample was placed in an aluminum pan. The sample was hermetically sealed, the lid pierced, then inserted into the TG furnace. The furnace was heated under nitrogen. The method code on the thermogram is an abbreviation for the start and end temperature as well as the heating rate; e.g., […] means “from 25° C. to 350° C., at 10° C./min”."}}, "note": "Read-outs that look alike come from different tables or passages of the source."}
{"smiles": "CC(=O)c1nn(CC(=O)N2[C@H](C(=O)Nc3nc(Br)ccc3C)C[C@@]3(C)C[C@@H]23)c2c(C)cc(-c3cnc(C)nc3)cc12", "note": "[Compound 2]", "values": [{"measurement": "Solution stress testing: Acid degradation", "setting": "[1]; 0.1N HCl", "value": "Degradation observed"}, {"measurement": "Acid degradation, extent", "setting": "[1]; 0.1N HCl, 7-days at RT", "value": "(~8% 7-days at RT)"}, {"measurement": "Solution stress testing: Base degradation", "setting": "[1]; 0.1N NaOH", "value": "Degradation observed"}, {"measurement": "Base degradation, extent", "setting": "[1]; 0.1N NaOH, 2-days at RT", "value": "(~18% 2-days at RT)"}, {"measurement": "Solution stress testing: Oxidative degradation", "setting": "[1]; H2O2", "value": "Not susceptible to oxidation"}, {"measurement": "solubility", "setting": "[2]; FaSSIF, read-out: FaSSIF solubility", "value": 2.6, "unit": "µg/mL"}, {"measurement": "solubility", "setting": "[2]; FeSSIF, read-out: FeSSIF solubility", "value": 4.7, "unit": "µg/mL"}, {"measurement": "Assay", "setting": "[3]; 5° C./NR RH, 1-month", "value": 97.3, "unit": "%"}, {"measurement": "Total Impurities", "setting": "[3]; 5° C./NR RH, 1-month", "value": 1.9, "unit": "%"}, {"measurement": "Water Content", "setting": "[3]; 5° C./NR RH, 1-month", "value": 2.5, "unit": "%"}, {"measurement": "XRPD", "setting": "[3]; 5° C./NR RH, 1-month", "value": "amorphous"}, {"measurement": "Assay", "setting": "[3]; 5° C./NR RH, 3-month", "value": 97.5, "unit": "%"}, {"measurement": "Total Impurities", "setting": "[3]; 5° C./NR RH, 3-month", "value": 1.7, "unit": "%"}, {"measurement": "Water Content", "setting": "[3]; 5° C./NR RH, 3-month", "value": 2.3, "unit": "%"}, {"measurement": "Assay", "setting": "[3]; 5° C./NR RH, Time Zero", "value": 97.2, "unit": "%"}, {"measurement": "Total Impurities", "setting": "[3]; 5° C./NR RH, Time Zero", "value": 1.9, "unit": "%"}, {"measurement": "Water Content", "setting": "[3]; 5° C./NR RH, Time Zero", "value": 1.9, "unit": "%"}, {"measurement": "XRPD", "setting": "[3]; 5° C./NR RH, Time Zero", "value": "amorphous"}, {"measurement": "Assay", "setting": "[3]; 25° C./60% RH, 1-month", "value": 97.0, "unit": "%"}, {"measurement": "Total Impurities", "setting": "[3]; 25° C./60% RH, 1-month", "value": 1.9, "unit": "%"}, {"measurement": "Water Content", "setting": "[3]; 25° C./60% RH, 1-month", "value": 3.0, "unit": "%"}, {"measurement": "XRPD", "setting": "[3]; 25° C./60% RH, 1-month", "value": "amorphous"}, {"measurement": "Assay", "setting": "[3]; 25° C./60% RH, 2 weeks", "value": 99.5, "unit": "%"}, {"measurement": "Total Impurities", "setting": "[3]; 25° C./60% RH, 2 weeks", "value": 1.9, "unit": "%"}, {"measurement": "Water Content", "setting": "[3]; 25° C./60% RH, 2 weeks", "value": 2.7, "unit": "%%"}, {"measurement": "Assay", "setting": "[3]; 25° C./60% RH, 3-month", "value": 97.8, "unit": "%"}, {"measurement": "Total Impurities", "setting": "[3]; 25° C./60% RH, 3-month", "value": 1.9, "unit": "%"}, {"measurement": "Water Content", "setting": "[3]; 25° C./60% RH, 3-month", "value": 3.1, "unit": "%"}, {"measurement": "Assay", "setting": "[3]; 25° C./60% RH, Time Zero", "value": 97.2, "unit": "%"}, {"measurement": "Total Impurities", "setting": "[3]; 25° C./60% RH, Time Zero", "value": 1.9, "unit": "%"}, {"measurement": "Water Content", "setting": "[3]; 25° C./60% RH, Time Zero", "value": 1.9, "unit": "%"}, {"measurement": "XRPD", "setting": "[3]; 25° C./60% RH, Time Zero", "value": "amorphous"}, {"measurement": "Assay", "setting": "[3]; 40° C./75% RH, 1-month", "value": 97.5, "unit": "%"}, {"measurement": "Total Impurities", "setting": "[3]; 40° C./75% RH, 1-month", "value": 1.9, "unit": "%"}, {"measurement": "Water Content", "setting": "[3]; 40° C./75% RH, 1-month", "value": 4.0, "unit": "%"}, {"measurement": "XRPD", "setting": "[3]; 40° C./75% RH, 1-month", "value": "amorphous"}, {"measurement": "Assay", "setting": "[3]; 40° C./75% RH, 2 weeks", "value": 99.8, "unit": "%"}, {"measurement": "Total Impurities", "setting": "[3]; 40° C./75% RH, 2 weeks", "value": 1.9, "unit": "%"}, {"measurement": "Water Content", "setting": "[3]; 40° C./75% RH, 2 weeks", "value": 3.5, "unit": "%"}, {"measurement": "Assay", "setting": "[3]; 40° C./75% RH, 3-month", "value": 96.4, "unit": "%"}, {"measurement": "Total Impurities", "setting": "[3]; 40° C./75% RH, 3-month", "value": 1.6, "unit": "%"}, {"measurement": "Water Content", "setting": "[3]; 40° C./75% RH, 3-month", "value": 3.8, "unit": "%"}, {"measurement": "Assay", "setting": "[3]; 40° C./75% RH, Time Zero", "value": 97.2, "unit": "%"}, {"measurement": "Total Impurities", "setting": "[3]; 40° C./75% RH, Time Zero", "value": 1.9, "unit": "%"}, {"measurement": "Water Content", "setting": "[3]; 40° C./75% RH, Time Zero", "value": 1.9, "unit": "%"}, {"measurement": "XRPD", "setting": "[3]; 40° C./75% RH, Time Zero", "value": "amorphous"}, {"measurement": "efflux ratio", "setting": "[4]", "value": 1.2}, {"measurement": "Caco2: A-B", "setting": "Caco2", "value": "Caco2: A-B ~26 × 10^−6 cm/s"}, {"measurement": "BCS class", "setting": "[5]", "value": "BCS II compound"}, {"measurement": "Dose Number", "setting": "[5]; for 125 mg", "value": "Dose Number (for 125 mg): 106-190"}, {"measurement": "Solid State Stress Testing: Chemical Stability", "setting": "[6]; 70° C./75% RH", "value": "No degradation"}, {"measurement": "Solid State Stress Testing: Humidity", "setting": "[6]; 70° C./75% RH", "value": "Amorphous crystallizes out"}, {"measurement": "Solid State Stress Testing: Photostability", "setting": "[6]; exposure to UV visible", "value": "No light sensitivity"}, {"measurement": "Thermal Stability by TGA", "setting": "Thermal stability by TGA", "value": "~0.2% wt. loss to 150 °C"}]}
